From article PMC6199744, “Development of Chemical Proteomics for the Folateome and Analysis of the Kinetoplastid Folateome” (ACS Infectious Diseases, 2018)
Read-outs that look alike come from different tables or passages of the source.

Tests used:
Type in all cases: binding
[1] = target: T1, HeLa cell extract proteins (Homo sapiens, UniProt Q02790)
T1 construct: endogenous in cells; host or cells: HeLa cell extract
T1 sequence (Q02790 1-459): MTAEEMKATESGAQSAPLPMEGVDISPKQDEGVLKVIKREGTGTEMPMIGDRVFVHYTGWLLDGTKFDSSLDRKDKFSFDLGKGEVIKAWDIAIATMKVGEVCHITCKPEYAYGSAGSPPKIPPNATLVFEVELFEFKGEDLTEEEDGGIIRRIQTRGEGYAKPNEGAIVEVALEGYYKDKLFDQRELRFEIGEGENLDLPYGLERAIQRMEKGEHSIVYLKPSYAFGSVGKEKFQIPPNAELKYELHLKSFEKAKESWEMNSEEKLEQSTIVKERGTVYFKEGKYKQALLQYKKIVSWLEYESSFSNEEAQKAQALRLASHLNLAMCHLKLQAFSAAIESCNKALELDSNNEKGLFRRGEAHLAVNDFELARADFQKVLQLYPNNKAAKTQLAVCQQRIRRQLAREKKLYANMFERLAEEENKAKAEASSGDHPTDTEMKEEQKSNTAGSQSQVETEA

[2] = target: T2, HeLa cell extract proteins (Homo sapiens, UniProt P56192)
T2 construct: endogenous in cells; host or cells: HeLa cell extract
T2 sequence (P56192 1-900): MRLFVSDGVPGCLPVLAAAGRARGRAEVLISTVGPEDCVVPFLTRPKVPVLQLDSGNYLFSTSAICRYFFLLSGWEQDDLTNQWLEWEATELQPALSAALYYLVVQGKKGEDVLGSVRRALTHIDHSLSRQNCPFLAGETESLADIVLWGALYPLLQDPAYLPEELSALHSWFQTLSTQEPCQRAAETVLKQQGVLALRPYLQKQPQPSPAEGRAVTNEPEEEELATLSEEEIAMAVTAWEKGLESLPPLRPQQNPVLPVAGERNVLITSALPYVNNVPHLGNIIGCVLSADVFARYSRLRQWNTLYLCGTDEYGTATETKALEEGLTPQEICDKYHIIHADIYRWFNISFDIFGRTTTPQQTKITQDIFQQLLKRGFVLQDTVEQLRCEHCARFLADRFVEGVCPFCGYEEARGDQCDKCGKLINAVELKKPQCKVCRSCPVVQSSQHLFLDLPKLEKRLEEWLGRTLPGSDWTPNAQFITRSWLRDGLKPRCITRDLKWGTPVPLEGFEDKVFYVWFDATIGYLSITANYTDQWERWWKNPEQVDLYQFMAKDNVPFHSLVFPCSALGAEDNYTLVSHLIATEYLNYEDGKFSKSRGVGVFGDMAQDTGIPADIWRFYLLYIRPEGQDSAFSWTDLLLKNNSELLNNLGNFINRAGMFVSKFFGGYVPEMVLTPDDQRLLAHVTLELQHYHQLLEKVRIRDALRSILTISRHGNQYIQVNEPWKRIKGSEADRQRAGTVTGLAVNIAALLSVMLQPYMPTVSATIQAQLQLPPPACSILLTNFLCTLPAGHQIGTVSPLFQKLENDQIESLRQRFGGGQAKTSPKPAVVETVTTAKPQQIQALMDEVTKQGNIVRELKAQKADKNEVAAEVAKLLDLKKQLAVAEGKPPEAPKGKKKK

[3] = target: T3, HeLa cell extract proteins (Homo sapiens, UniProt O75153)
T3 construct: endogenous in cells; host or cells: HeLa cell extract
T3 sequence (O75153 1-1309): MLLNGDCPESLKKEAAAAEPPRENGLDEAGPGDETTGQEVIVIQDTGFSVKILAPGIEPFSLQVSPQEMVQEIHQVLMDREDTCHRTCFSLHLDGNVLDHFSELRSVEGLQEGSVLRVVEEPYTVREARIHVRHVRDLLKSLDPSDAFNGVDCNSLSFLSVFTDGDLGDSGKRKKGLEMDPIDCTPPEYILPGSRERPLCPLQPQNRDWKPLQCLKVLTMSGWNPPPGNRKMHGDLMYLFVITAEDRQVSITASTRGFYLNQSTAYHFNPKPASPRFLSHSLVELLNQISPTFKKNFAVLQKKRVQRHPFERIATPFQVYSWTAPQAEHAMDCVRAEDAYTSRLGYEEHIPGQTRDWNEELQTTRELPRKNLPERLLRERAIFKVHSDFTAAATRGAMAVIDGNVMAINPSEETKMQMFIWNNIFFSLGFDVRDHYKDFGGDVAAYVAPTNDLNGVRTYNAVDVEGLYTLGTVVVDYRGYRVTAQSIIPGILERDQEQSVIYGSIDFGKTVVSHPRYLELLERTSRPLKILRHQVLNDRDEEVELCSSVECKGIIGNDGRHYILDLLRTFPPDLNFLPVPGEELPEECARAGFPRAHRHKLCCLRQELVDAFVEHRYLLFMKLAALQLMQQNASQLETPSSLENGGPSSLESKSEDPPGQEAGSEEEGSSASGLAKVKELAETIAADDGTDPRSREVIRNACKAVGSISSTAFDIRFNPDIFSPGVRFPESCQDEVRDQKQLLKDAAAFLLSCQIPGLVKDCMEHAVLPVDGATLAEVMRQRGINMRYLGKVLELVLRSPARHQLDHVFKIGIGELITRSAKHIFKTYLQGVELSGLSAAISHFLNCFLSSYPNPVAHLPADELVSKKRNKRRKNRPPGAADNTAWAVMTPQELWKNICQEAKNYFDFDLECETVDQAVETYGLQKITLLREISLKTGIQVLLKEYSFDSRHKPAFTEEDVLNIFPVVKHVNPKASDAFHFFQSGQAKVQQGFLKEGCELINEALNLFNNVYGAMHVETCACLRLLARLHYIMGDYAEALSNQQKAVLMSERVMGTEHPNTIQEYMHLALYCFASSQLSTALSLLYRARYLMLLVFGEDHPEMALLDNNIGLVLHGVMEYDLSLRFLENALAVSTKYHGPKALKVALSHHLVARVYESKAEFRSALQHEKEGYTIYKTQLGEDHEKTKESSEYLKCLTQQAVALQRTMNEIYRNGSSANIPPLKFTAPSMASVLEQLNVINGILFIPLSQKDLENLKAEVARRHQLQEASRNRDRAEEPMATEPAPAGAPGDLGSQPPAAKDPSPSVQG

[4] = HeLa, protein FKBP4 (FK506-BINDING PROTEIN 4.)

| SMILES | fold changes relative to vehicle control [1, 4] | fold changes relative to vehicle control ([2]; captured protein MARS, HeLa) | fold changes relative to vehicle control ([3]; HeLa, protein KIAA0664) | fold changes relative to vehicle control ([1]; HeLa, protein FKBP4) | fold changes relative to vehicle control ([2]; HeLa, captured protein MARS) | fold changes relative to vehicle control ([3]; protein KIAA0664, HeLa) | other results |
| --- | --- | --- | --- | --- | --- | --- | --- |
| Nc1nc2cccc(-c3ccccc3)c2n1Cc1ccc(Cl)c(Cl)c1 [compound 3] | 1.05 fold | 0.93 | 1.11 | – | – | – | – |
| CCCCCCOc1ccc(Cc2cnc(N)nc2N)cc1 [compound 1] | 1.48 fold | 0.74 | 1.17 | – | – | – | – |
| NCCCNc1ccc(C(=O)NC(CCC(=O)O)C(=O)O)cc1 (stereo not drawn) [compound 7] | – | – | – | 1.05 | 0.94 | 1.12 | – |
| CCCCCCOc1cccc(Cc2cnc(N)nc2N)c1 [compound 2] | 2.28 fold | 1.07 | 1.25 | – | – | – | – |
| NCCOCCOCC(=O)Nc1nc2ncc(CNc3ccc(C(=O)NC(CCC(=O)O)C(=O)O)cc3)nc2c(=O)[nH]1 (stereo not drawn) [compound 6] | – | – | – | 1.4 | 1.01 | 1.01 | – |
| Nc1nc2[nH]cc(CCc3ccc(C(=O)N[C@@H](CCC(=O)O)C(=O)O)cc3)c2c(=O)[nH]1 [PTX, pemetrexed] | – | – | – | – | – | – | fold changes relative to vehicle control [1]: 1.18; fold changes relative to vehicle control [2]: 0.93; fold changes relative to vehicle control [3]: 1.07 |
| Nc1nc2c(c(=O)[nH]1)N(C=O)C(CNc1ccc(C(=O)N[C@@H](CCC(=O)O)C(=O)O)cc1)CN2 (stereo partly drawn) [LEU, leucovorin] | – | – | – | 1.01 | 0.92 | 1.17 | – |
